pIC50: −log10 of the molar value.
What was measured:
[1] = biological target: T1, Delta(14)-sterol reductase (Zea mays) (UniProt B4FS76); assay: Inhibition of Zea mays (maize) microsomal delta 8,14-steroid 14-reductase using delta 8,14-cholestadienol as substrate at 200 uM after 90 min by GC analysis
T1 sequence (whole entry): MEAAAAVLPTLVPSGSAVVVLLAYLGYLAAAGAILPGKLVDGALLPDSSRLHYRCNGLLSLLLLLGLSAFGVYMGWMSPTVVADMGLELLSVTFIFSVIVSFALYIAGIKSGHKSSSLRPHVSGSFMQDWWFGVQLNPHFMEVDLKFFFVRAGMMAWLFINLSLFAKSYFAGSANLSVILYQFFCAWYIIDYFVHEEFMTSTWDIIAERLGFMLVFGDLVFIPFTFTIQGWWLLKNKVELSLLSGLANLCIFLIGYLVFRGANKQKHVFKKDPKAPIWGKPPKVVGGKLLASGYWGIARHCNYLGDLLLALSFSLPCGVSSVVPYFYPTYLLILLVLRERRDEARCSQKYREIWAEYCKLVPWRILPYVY

[2] = biological target: T2, Cycloeucalenol cycloisomerase (Zea mays) (UniProt B6TK44); assay: Inhibition of Zea mays (maize) cycloeucalenol-obtusifolial isomerase at 200 uM
T2 sequence (whole entry): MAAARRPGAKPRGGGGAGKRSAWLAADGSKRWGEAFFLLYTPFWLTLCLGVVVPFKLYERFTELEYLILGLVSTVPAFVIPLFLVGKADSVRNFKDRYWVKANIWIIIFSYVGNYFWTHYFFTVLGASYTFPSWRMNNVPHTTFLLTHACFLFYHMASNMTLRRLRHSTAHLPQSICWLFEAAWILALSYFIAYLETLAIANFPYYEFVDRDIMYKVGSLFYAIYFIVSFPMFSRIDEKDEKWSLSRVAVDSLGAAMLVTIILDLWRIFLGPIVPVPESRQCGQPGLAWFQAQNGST

[3] = biological target: T3, Sterol-8,7-isomerase (Zea mays) (UniProt Q2TU57); assay: Inhibition of Zea mays (maize) delta8,delta7-sterol isomerase at 200 uM
T3 sequence (whole entry): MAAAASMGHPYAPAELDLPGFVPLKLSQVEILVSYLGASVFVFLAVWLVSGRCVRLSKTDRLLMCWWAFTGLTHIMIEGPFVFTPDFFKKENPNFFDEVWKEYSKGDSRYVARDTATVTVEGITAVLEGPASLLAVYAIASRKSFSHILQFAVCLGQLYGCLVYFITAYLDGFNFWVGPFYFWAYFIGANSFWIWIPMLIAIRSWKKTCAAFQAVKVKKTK

[4] = biological target: T4, Delta(14)-sterol reductase (Zea mays, UniProt B4FS76); assay: Inhibition of Zea mays (maize) microsomal delta 8,14-steroid 14-reductase using delta 8,14-cholestadienol as substrate after 90 min by GC analysis
T4 sequence (B4FS76 whole entry): T1 sequence (whole entry)

[5] = biological target: T5, Sterol-8,7-isomerase (Zea mays, UniProt Q2TU57); assay: Inhibition of Zea mays (maize) delta8,delta7-sterol isomerase
T5 sequence (Q2TU57 whole entry): T3 sequence (whole entry)

[6] = biological target: T1, Delta(14)-sterol reductase (Zea mays); assay: Ratio of compound I50 to delta8,14-cholestadien-3beta-ol Km for Zea mays (maize) delta 8,14-steroid 14-reductase
[7] = biological target: T6, Cycloeucalenol cycloisomerase (Zea mays, UniProt B6TK44); assay: Inhibition of Zea mays (maize) cycloeucalenol-obtusifolial isomerase
T6 sequence (B6TK44 whole entry): T2 sequence (whole entry)

Row | inhibition [1] [%] | inhibition [3] [%] | Structure (SMILES) | inhibition [2] [%] | pIC50 [4] | pIC50 [5] | Ratio [6] | pIC50 [7]
1 | < 5 | < 5 | C[C@@H]1[C@@H](O)CC[C@]2(C)CCCC[C@@H]12 | < 5 |  |  |  | 
2 |  |  | C=C(CC[C@@H](C)[C@H]1CCN=C2C3=C(CC[C@@]21C)[C@@]1(C)CC[C@H](O)C[C@@H]1CC3)C(C)C | < 5 | 7.52 | 6.10 | 0.00015 | 
3 |  |  | CC(C)CCCC(C)CCCC(C)N1CC[C@H]2[C@H](C)[C@@H](O)CC[C@]2(C)C1 (stereo partly drawn) |  | 6.52 | 6.70 |  | 7.60
4 |  |  | CC(Cc1ccc(C(C)(C)C)cc1)CN1C[C@@H](C)O[C@@H](C)C1 (stereo partly drawn) [FENPROPIMORPH] |  | 6.10 | 6.40 |  | 6.40
5 |  |  | C[C@@H]1[C@@H](O)CC[C@]2(C)CN(Cc3ccccc3)CC[C@@H]12 |  | 7.10 | 6.89 |  | 7.00
6 |  |  | CCCCCCCCCCCCN1CC[C@H]2[C@H](C)[C@@H](O)CC[C@]2(C)C1 |  | 7.05 |  |  | 7.00
7 |  |  | CC(Cc1ccc(C(C)(C)C)cc1)CN1CC[C@H]2[C@H](C)[C@@H](O)CC[C@]2(C)C1 (stereo partly drawn) |  | 7.15 |  | 6.5e-05 | 7.00
8 |  |  | Clc1ccccc1CNC[C@H]1CC[C@H](CNCc2ccccc2Cl)CC1 | < 5 | 4.40 | 6.30 |  | 
9 |  |  | C[C@@H]1[C@@H](O)CC[C@]2(C)CNCC[C@@H]12 |  | 5.35 | 5.00 |  | 4.76
10 |  |  | CCCCCCCCCCCCCN1CC(C)OC(C)C1 (stereo not drawn) [TRIDEMORPH] |  | 4.60 | 6.40 |  | 6.40
11 |  |  | CC(Cc1ccc(C(C)(C)C)cc1)CN1CCCCC1 (stereo not drawn) [FENPROPIDIN] |  | 5.52 | 7.10 |  | 6.70
